{"source": "paper PMC6967409", "about": "(Frontiers in Chemistry, 2020)", "key": {"[1]": {"system": "P. falciparum Dd2", "design": "method as in Coertzen et al. (2018)", "conditions": "pLDH, 48 h; ref Coertzen et al. (2018); read-out: Metabolic IC50 Dd2; cited from earlier work"}, "[2]": {"system": "P. falciparum NF54", "design": "method as in Coertzen et al. (2018)", "conditions": "SYBR Green I; ref Coertzen et al. (2018); read-out: Proliferative IC50 NF54; cited from earlier work"}, "[3]": {"system": "P. falciparum K1", "design": "method as in Coertzen et al. (2018)", "conditions": "SYBR Green I; ref Coertzen et al. (2018); read-out: Proliferative IC50 K1; cited from earlier work"}, "[4]": {"system": "P. falciparum NF54", "design": "method as in Coertzen et al. (2018)", "conditions": "pLDH, 48 h; ref Coertzen et al. (2018); read-out: Metabolic IC50 NF54; cited from earlier work"}, "[5]": {"system": "HepG2 cells", "conditions": "read-out: Cytotoxicity EC50 HepG2; ref Coertzen et al. (2018); cited from earlier work"}, "[6]": {"system": "P. falciparum K1", "experiment": "Proliferative (SYBR Green I) assay, asexual parasites, 96 h", "assay_type": "cell-based", "conditions": "Plasmodium falciparum, ±SEM", "method": "(§1) P. falciparum parasites (NF54, K1, and W2) were cultured in vitro in human erythrocytes (A^+ or O^+) under 90% N2, 5% CO2, and 5% O2 atmospheric conditions with supplemented RPMI 1640 media (Sigma Aldrich) containing Albumax II, as previously described (Verlinden et al., [2011]). This study was carried out according the guidelines set out by the Faculty of Health Sciences Ethical Committee, Ethical Clearance no. EC-120821/077. The protocol was approved by the Faculty of Health sciences ethical committee at the University of Pretoria. All subjects gave written informed consent in accordance with the Declaration of Helsinki. Parasite proliferation was monitored microscopically using Giemsa stained smears. Synchronized ring stage parasites (>95%) were obtained using a 5% D-sorbitol (Sigma Aldrich) treatment. […] Gametocyte cultures were kept stationary under 90% N2, 5% CO2, and 5% O2 atmospheric conditions at 37°C and treated with 50 mM N-acetyl-glucosamine (NAG) to eliminate residual invasion of asexual parasites.\n(§2) Working solutions of the derivatives were prepared from a 10 mM stock solution in 100% DMSO in supplemented RPMI 1640 media containing Albumax II with a final DMSO concentration of <0.1%, previously determined as being non-toxic to intraerythrocytic asexual parasites and gametocytes. Dose responses were assayed using a two-fold serial drug dilution on in vitro >95% ring stage intraerythrocytic P. falciparum parasites at 37°C under 90% N2, 5% CO2, and 5% O2 atmospheric conditions, detecting both parasite lactate dehydrogenase (pLDH) activity as a metabolic marker following a 48 h drug exposure (1.5–2% parasitemia and 2% hematocrit; Makler et al., [1993]) and SYBR Green I fluorescence as proliferative marker following a 96 h drug exposure (1% parasitemia and 1% hematocrit). […] Data analysis was performed using GraphPad Prism 7."}, "[7]": {"system": "P. falciparum W2", "experiment": "Proliferative (SYBR Green I) assay, asexual parasites, 96 h", "assay_type": "cell-based", "conditions": "Plasmodium falciparum, ±SEM", "method": "as §1, §2"}, "[8]": {"system": "P. falciparum NF54", "experiment": "Proliferative (SYBR Green I) assay, asexual parasites, 96 h", "assay_type": "cell-based", "conditions": "Plasmodium falciparum, ±SEM", "method": "as §1, §2"}, "[9]": {"system": "asexual P. falciparum NF54, Dd2, K1, W2", "experiment": "Asexual P. falciparum, metabolic (pLDH) and proliferative (SYBR Green I) platforms", "assay_type": "cell-based", "conditions": "Plasmodium falciparum; read-out: IC50 for drug sensitive NF54 parasites across both assay platforms", "method": "Data analysis was performed using GraphPad Prism 7.\nThe in vitro activities of the new derivatives were determined against drug sensitive NF54 and multi-drug resistant Dd2, K1, and W2 intraerythrocytic asexual P. falciparum malaria parasite strains using both a metabolic (parasite LDH) and a proliferative (SYBR Green I fluorescence) assay readout (Table 1)."}, "[10]": {"system": "P. falciparum W2", "experiment": "T0 [3H]-hypoxanthine drug susceptibility assay", "assay_type": "cell-based", "conditions": "Plasmodium falciparum"}, "[11]": {"experiment": "Cytotoxicity, MTT assay", "assay_type": "cell-based", "conditions": "Chinese hamster, CHO cells", "method": "(§3) Cytotoxicity (EC50) was determined against Chinese hamster ovarian (CHO) using a 3-(4,5-dimethylthiazol-2-yl)-2,5-diphenyltetrazolium bromide (MTT) assay and hepatocellular carcinoma cells (HepG2) using the Cytoselect LDH cytotoxicity assay kit (Cell Biolabs)."}, "[12]": {"system": "P. falciparum stage III/IV/V and mature stage V (>95% stage V) gametocytes", "experiment": "Stage-specificity and kill kinetics against late stage gametocytes, luciferase reporter line", "assay_type": "cell-based", "conditions": "Plasmodium falciparum, 72 h treatment", "method": "Late stage gametocytes, stage III, IV/V (10% stage III, 50% stage IV, 40% stage V population on day 10 post-induction) or mature stage V (>95% stage V on day 13 post-induction) were used to determine the differential stage specificity and kill kinetics (speed-of-action) of the compounds. Dose responses were determined using the luciferase reporter line, exposed to 10-fold serial drug dilutions for 72 h at 37°C under 90% N2, 5% CO2, and 5% O2 atmospheric conditions. […] Additionally, a drug washout step was included by replacing the drug-containing spent medium with fresh media (without drug) followed by a further 24 h incubation prior to measuring luciferase activity. […] Data are the average from a single independent biological experiment with technical triplicates, error bars indicate ±SD."}, "[13]": {"system": "P. berghei ANKA GFP-Luc-SMcon sporozoites", "experiment": "P. berghei-luciferase liver stage bioluminescence assay (causal prophylactic mode) in HepG2-CD81 cells", "assay_type": "cell-based, Plasmodium berghei", "method_in_brief": "(§4)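 HepG2-CD81 cells seeded onto compounds in DMSO, infected with P. berghei luciferase-expressing sporozoites; liver-stage growth read as luciferase bioluminescence after BrightGlo luciferin addition. Cytotoxicity measured in parallel on uninfected HepG2 plates via CellTiterGlo ATP luminescence.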"}, "[14]": {"system": "P. falciparum Dd2", "experiment": "Metabolic (parasite LDH) assay, asexual ring stage parasites, 48 h", "assay_type": "cell-based", "conditions": "Plasmodium falciparum, pLDH, Dd2 CQ, pyrimethamine resistant", "method": "as §2"}, "[15]": {"system": "P. falciparum NF54 early stage gametocytes (>90% stage I–III)", "experiment": "Gametocytocidal luciferase reporter assay, early stage, 48 h", "assay_type": "cell-based", "conditions": "Plasmodium falciparum, NF54, 48 h, read-out: Early Stage (EG, Luc 48 h) IC50", "method": "as §1\n(§5) Gametocytocidal activity was determined using the luciferase reporter line (Reader et al., [2015]) to derive dose responses with two-fold serial drug dilutions for 48 h against early stage gametocytes (day 5 post-induction population, >90% stage I–III) and 10-fold serial drug dilutions for 72 h against late stage gametocytes (day 10 post-induction population, >90% late stage IV–V) (2% gametocytemia, 2% hematocrit), at 37°C under 90% N2, 5% CO2, and 5% O2 atmospheric conditions."}, "[16]": {"system": "P. falciparum NF54 late stage gametocytes (>90% stage IV and V)", "experiment": "Gametocytocidal luciferase reporter assay, late stage, 72 h", "assay_type": "cell-based, Plasmodium falciparum", "method": "as §1, §5"}, "[17]": {"system": "P. falciparum ARC08-22 (4G)", "experiment": "T0 [3H]-hypoxanthine drug susceptibility assay, artemisinin-resistant clone (C580Y)", "assay_type": "cell-based, Plasmodium falciparum", "conditions": "preliminary, W2 as comparative sensitive strain"}, "[18]": {"system": "P. falciparum NF54", "experiment": "Metabolic (parasite LDH) assay, asexual ring stage parasites, 48 h", "assay_type": "cell-based", "conditions": "Plasmodium falciparum, pLDH, CQ-sensitive NF54", "method": "as §1, §2"}, "[19]": {"experiment": "Cytotoxicity, Cytoselect LDH cytotoxicity assay kit", "assay_type": "cell-based", "conditions": "human, HepG2 cells", "method": "as §3"}, "[20]": {"experiment": "HepG2 cytotoxicity bioluminescence assay (CellTiterGlo, ATP)", "assay_type": "cell-based, human", "conditions": "human, uninfected HepG2-CD81 cells", "method_in_brief": "as §4"}, "[21]": {"system": "HepG2 cells", "experiment": "HepG2 cytotoxicity bioluminescence assay (CellTiterGlo, ATP)", "assay_type": "cell-based, human", "conditions": "two biological replicates listed in one cell; listed as 28 (WHN-14)", "method_in_brief": "as §4"}}, "note": "Where “and” joins values, the source holds several entries; their conditions need not be identical. Equal entries are not always repeated. Where two headings read alike, the source gives them in different places."}
{"smiles": "CCN(CC)CCCC(C)Nc1ccnc2cc(Cl)ccc12", "note": "(centres unmarked) [CQ, chloroquine]", "values": [{"measurement": "IC50", "setting": "[1]", "value": "251 ± 19.9", "unit": "nM"}, {"measurement": "IC50", "setting": "[2]", "value": "10 ± 3", "unit": "nM"}, {"measurement": "IC50", "setting": "[3]", "value": "154 ± 14", "unit": "nM"}, {"measurement": "IC50", "setting": "[4]", "value": "10 ± 1.6", "unit": "nM"}, {"measurement": "EC50", "setting": "[5]", "value": 58.4, "unit": "nM"}]}
{"smiles": "C[C@H]1[C@H](N2CCN(C(=O)c3ccc(F)cc3)CC2)O[C@@H]2O[C@@]3(C)CC[C@H]4[C@H](C)CC[C@@H]1[C@@]24OO3", "note": "[Compound 28]", "values": [{"measurement": "IC50", "setting": "[6]", "value": "2.1 ± 1.1", "unit": "nM"}, {"measurement": "IC50", "setting": "[7]", "value": "2.7 ± 0.2", "unit": "nM"}, {"measurement": "IC50", "setting": "[8]", "value": "2.8 ± 0.2", "unit": "nM"}, {"measurement": "IC50", "setting": "[9]", "value": "1 to 2", "unit": "nM"}, {"measurement": "IC50", "setting": "[10]; W2, read-out: W2 IC50", "value": "0.1 ± 0.03", "unit": "nM"}, {"measurement": "IC90", "setting": "[10]; W2, read-out: W2 IC90", "value": "0.19 ± 0.02", "unit": "nM"}, {"measurement": "EC50", "setting": "[11]", "value": 190000, "unit": "nM"}, {"measurement": "IC50", "setting": "[12]", "value": "< 10", "unit": "nM"}, {"measurement": "Emax", "setting": "[13]; Plasmodium berghei, 48 h, two biological replicates listed in one cell, read-out: P.berghei-Luciferase Liver Stage Bioluminescence Assay: Maximum measured (%)", "value": 101, "unit": "%"}, {"measurement": "IC50", "setting": "[13]; Plasmodium berghei, HepG2, 48 h, liver stage, HepG2 host cells, luciferase after 48 h, ±SD, read-out: P. berghei sporozoites IC50", "value": "114 ± 15.6", "unit": "nM"}, {"measurement": "IC50", "setting": "[13]; Plasmodium berghei, two biological replicates listed in one cell, read-out: P.berghei-Luciferase Liver Stage Bioluminescence Assay: IC50", "value": 103, "unit": "nM"}, {"measurement": "inhibition at 10 µM", "setting": "[13]; Plasmodium berghei, Conc. 10 μM, read-out: P. berghei sporozoites Maximum inhibition %", "value": "104 ± 4.24", "unit": "%"}, {"measurement": "IC50", "setting": "[13]; two biological replicates listed in one cell, listed as 28 (WHN-14), read-out: P.berghei-Luciferase Liver Stage Bioluminescence Assay: IC50", "value": 125, "unit": "nM"}, {"measurement": "IC50", "setting": "[14]", "value": "1.5 ± 0.6", "unit": "nM"}, {"measurement": "IC50", "setting": "[15]", "value": "19.5 ± 8.5", "unit": "nM"}, {"measurement": "IC50", "setting": "[16]; Plasmodium falciparum, NF54, 72 h, read-out: Late Stage (LG, Luc 72 h) IC50, >90% stage IV and V gametocytes, ±SEM", "value": "0.4 to 0.7", "unit": "nM"}, {"measurement": "IC50", "setting": "[16]; read-out: Late Stage (LG, Luc 72 h) IC50, >90% stage IV and V gametocytes, ±SEM", "value": "0.6 ± 0.3", "unit": "nM"}, {"measurement": "susceptibility of ARC08-22 (4G) clone (in words)", "setting": "[17]", "value": "no indication of reduced susceptibility"}, {"measurement": "IC50", "setting": "[18]", "value": "1.06 ± 0.19", "unit": "nM"}, {"measurement": "EC50", "setting": "[19]", "value": 190, "unit": "nM"}, {"measurement": "IC50 at 72 h", "setting": "[20]; two biological replicates listed in one cell", "value": 10200, "unit": "nM"}, {"measurement": "EC50 at 72 h", "setting": "[20]; uninfected HepG2, ATP bioluminescence", "value": 8320, "unit": "nM"}, {"measurement": "HepG2 Cytotoxicity Bioluminescence Assay: Maximum measured (%)", "setting": "[21]", "value": "61.7% and 66.5%"}, {"measurement": "IC50", "setting": "[21]", "value": 6440, "unit": "nM"}]}
